Test results taken from patent US11672797B2, “Methods of treating keloids” (Hampton University, priority 2019, dated 2023).

Assays:
Type in all cases: cell-based, human
[1] = tested on: Keloid fibroblast (KF) cells (CRL1762); test: Example 1: Hoechst / propidium iodide staining of keloid fibroblasts after 16 h treatment; settings: for number of KF cells: 40 μM KC7F2, 25 uM IDF-11774, 25 uM PX-478, 10 mM 2-DG, compared to control untreated cells, FIGS. 4A-B
[2] = tested on: Keloid fibroblast (KF) cells (CRL1762); test: Example 2: phalloidin / DAPI staining of keloid fibroblasts, 10,000 cells per well; settings: 16 hours
Description: (§1) Keloid fibroblast (KF) cells (CRL1762) and normal skin fibroblasts (NF, CRL2439) were both purchased from the American Type Culture Collection (ATCC, Manassas, Va.). This assay compared the effects of KC7F2 versus the glycolytic inhibitor 2-DG on the cellular consequences of HIF-1 functional blockade.
For each human skin fibroblast, 10,000 cells were plated per well. Each well was treated and incubated for 16 hours with the following: Control, no chemical treatment; 40 μM KC7F2; 10 mM 2-deoxyglucose (2-DG), a glycolysis inhibitor; and both 40 μM KC7F2 and 10 mM 2-DG. Cells were stained with phalloidin for filamentous actin and cells were labelled DAPI (4′,6-diamidino-2-phenylindolepropridium iodide) to indicate dying cells. Images were taken at a magnification of 4 times (4×) and 10 times (10×).

[3] = tested on: Keloid fibroblast (KF) cells (CRL1762); test: Example 3: phalloidin / DAPI staining of keloid fibroblasts, 20,000 cells per well; settings: 16 hours
Description: as §1
For each human skin fibroblast, 20,000 cells, were plated per well. Each well was treated and incubated for 16 hours with the following: Control, no chemical treatment; 40 μM KC7F2; 10 mM 2-deoxyglucose (2-DG), a glycolysis inhibitor; and both 40 μM KC7F2 and 10 mM 2-DG. Cells were stained with phalloidin for filamentous actin and cells were labelled DAPI (4′,6-diamidino-2-phenylindolepropridium iodide) to indicate dying cells. Images were taken at a magnification of 4 times (4×) and 10 times (10×).

CN1CCN(C(=O)COc2ccc(C34CC5CC(CC(C5)C3)C4)cc2)CC1 [IDF-11774, 2-(4-((3r,5r,7r)-adamantan-1-yl)phenoxy)-1-(4-methylpiperazin-1-yl)ethan-1-one]
number of KF cells [1]: worked less well, but showed the same trend

O=CC[C@@H](O)[C@H](O)[C@H](O)CO [2-DG, 2-deoxyglucose]
proliferation ([1]; 10 mM 2-DG alone): insufficient to impede proliferation to an appreciable amount | proliferation ([2]; 10 mM 2-DG alone): insufficient to impede proliferation to an appreciable amount | proliferation ([3]; 10 mM 2-DG alone): insufficient to impede proliferation to an appreciable amount

O=S(=O)(NCCSSCCNS(=O)(=O)c1cc(Cl)ccc1Cl)c1cc(Cl)ccc1Cl [KC7F2]
number of KF cells [1]: reduced the number of KF cells consistently and the best | number of KF cells ([2]; 40 μM KC7F2, FIGS. 5A, 6A): reduced the number of KF cells consistently and the best | number of KF cells ([3]; 40 μM KC7F2, FIGS. 7A, 8A): reduced the number of KF cells consistently and the best
